# Results: ChEMBL document CHEMBL1157099, “Proline-containing cyclopeptides from the marine sponge Phakellia fusca” (J Nat Prod, 2010)
# Active and inactive are the calls of the source. The calls are words filed in the database; no cut-off is given here. Residues, ends and D or L forms follow the SMILES beside them.
# Experiments:
# P388 = experiment: Cytotoxicity against mouse P388 cells after 48 hrs by MTT assay; format: functional, cell-based; conditions: for IC50: P388, 48 h
# Bel-7402 = experiment: Cytotoxicity against human Bel7402 cells after 48 hrs by MTT assay; format: functional, cell-based
Structure (SMILES),IC50 (P388),"IC50 (Bel-7402; Bel-7402, 48 h)",Activity (P388),Activity (Bel-7402)
CC(C)[C@@H]1NC(=O)[C@H](C)NC(=O)[C@H](CCCNC(=N)N)NC(=O)[C@H](CO)NC(=O)[C@H](CC(=O)O)NC(=O)[C@H](Cc2ccccc2)NC(=O)[C@@H]2CCCN2C(=O)[C@H](Cc2ccc(O)cc2)NC(=O)[C@H]([C@@H](C)O)NC1=O [PHAKELLISTATIN 16] (cyclo(AVTYPFDSR)),5.4 µM,14.3 µM,–,–
CC[C@H](C)[C@@H]1NC(=O)[C@H](Cc2c[nH]c3ccccc23)NC(=O)[C@@H]2CCCN2C(=O)[C@H](CC(C)C)NC(=O)[C@@H]2CCCN2C(=O)[C@H]([C@@H](C)O)NC(=O)[C@H](CC(C)C)NC(=O)[C@@H]2CCCN2C1=O [PHAKELLISTATIN 15] (cyclo(IPLTPLPW)),8.5 µM,–,–,–
CC[C@H](C)[C@@H]1NC(=O)[C@H](CC(C)C)NC(=O)[C@@H]2CCCN2C(=O)[C@H](C(C)C)NC(=O)[C@H](Cc2c[nH]c3ccccc23)NC(=O)[C@@H]2CCCN2C(=O)[C@H]([C@@H](C)CC)NC(=O)[C@@H]2CCCN2C1=O (cyclo(IPIPWVPL)),–,–,inactive,inactive
